Reference: US20230190760A1, “ADVANTAGEOUS THERAPIES FOR DISORDERS MEDIATED BY IKAROS OR AIOLOS” (C4 Therapeutics, Inc., priority 2020, published 2023)

Tests used:
[1] = target: G1 to S Phase Transition 1 (GSPT1) (Homo sapiens, UniProt P15170); experiment: Targeted cell-based assay for GSPT1; details: up to 10 μM
[2] = test system: 87 potential unintended molecular targets; experiment: In vitro binding or activity against 87 potential unintended molecular targets; details: 100 nM, 500× the free plasma exposure (Cmax) of maximum in vivo efficacy
KI-JK ALCL tumors = experiment: KI-JK ALCL xenograft efficacy (Example 17); format: in vivo, mice; details: 30 or 100 μg/kg PO daily for 21 days
Protocol: A xenograft study was conducted in female NOD SCID mice bearing KI-JK ALCL tumors.
Data are expressed as MTV±SEM.

IKZF1 and IKZF3 = IKZF1 and IKZF3 in blood cells of a monkey by flow cytometry; format: in vivo, cynomolgus monkey; details: 30 μg/kg oral gavage, 4-hour and 24-hour timepoint
Protocol: One fasted male cynomolgus monkey was administered Compound 1 formulated in 1% carboxymethylcellulose sodium+20% PEG400 in citrate buffer at 30 μg/kg by oral gavage. At indicated timepoints, blood was collected from a peripheral vessel from a restrained, non sedated monkey. 50 uL of whole blood was added to a flow tube with 1 ml PBS, centrifuged for 5 minutes at 400×g and supernatant discarded. Blood was lysed in 1 mL of lysis buffer for 10-15 minutes at room temperature, centrifuged for 5 minutes at 400× and supernatant discarded. PBS (1 mL) was added to each tube, centrifuged for 5 minutes at 400×g and supernatant discarded. PBS (1 mL) was added together with 1 ul of Zombie NIR dye to the white blood cells and incubated for 20 minutes at room temperature. The cells were centrifuged for 5 minutes at 400×g and supernatant discarded. Fixation buffer (1 mL) was added and incubated for 20 minutes at room temperature. Cells were washed with permeabilization buffer (1 mL) and centrifuged for 5 minutes at 400×g and supernatant discarded. […] Cells were washed twice with PBS (1 mL), resuspended in PBS and analyzed analyzed on a BD LSR Fortessa Flow Cytometer. FIG. 24 is a graph of the percent mean fluorescence intensity of IKZF1 and IZKF3 at 4 h and 24 hr post dose compared to the pre-dose sample. […]

[3] = Plasma PK and interconversion in rat; format: in vivo; details: Compound 1 30 mg/kg PO
Protocol: Compound 1 was administered to a rat at a concentration of 30 mg/kg PO and monkeys at a concentration of either 60 μg/kg or 100 μg/kg PO. At the indicated timepoints shown in FIG. 25A and FIG. 25B, plasma samples were collected and the Cmax, half-life, and AUC0-inf were determined for both Compound 1 and a metabolite of Compound 1, Compound 14. The percent of Compound 14 was also determined (Table 13). PK values dose normalized to 1 mg/kg. FIG. 25A is a graph measuring the concentration of Compound 1 or Compound 14 over the course of 24 hours in monkeys administered 100 μg/kg or 60 μg/kg of Compound 1. FIG. 25B is a graph measuring the concentration of Compound 1 or Compound 14 over the course of 24 hours in a rat administered 30 mg/kg of Compound 1.

[4] = test system: NCI-H929 multiple myeloma tumors; experiment: NCI-H929 multiple myeloma xenograft, NOD SCID mice (Example 31); format: in vivo
Protocol: Compound 1 was administered QD (every day) orally (PO). […]
For the NCI-H929 cells, the xenograft study was conducted in female NOD SCID mice bearing NCI-H929 multiple myeloma tumors.
After the dosing period, tumor growth was monitored for 45 days. […] After the initial 21 days of dosing, all Compound 1 groups were monitored for tumor growth. The 10 μg/kg group was removed from study on 39. The 30 μg/kg group tumors began to regrow, and PO daily dosing resumed starting on day 40 for an additional 23 days. Statistical analysis was performed using two-way analysis of variance (ANOVA). Data are expressed as MTV±SEM.

IKZF1/3 = experiment: Biomarker assessment in MM and ALCL tumor bearing studies; format: in vivo
tumor xenografts = experiment: Mouse xenograft tumor models (summary); format: in vivo
Protocol: Compound 1 efficacy in two multiple myeloma cell lines (NC-H929) and (RPMI-8226) was evaluated at four different doses: 3 μg/kg, 10 μg/kg, 30 μg/kg, and 100 μg/kg. Compound 1 was administered QD (every day) orally (PO). […]

OCI-LY10 = experiment: Anti-proliferative activity, 96 hours; details: Homo sapiens, OCI-Ly10, 96 h
WSU-DLCL2 = experiment: Anti-proliferative activity, 96 hours; details: Homo sapiens, WSUDLCL2, 96 h
SU-DHL-5 = experiment: Anti-proliferative activity, 96 hours; details: Homo sapiens, SU-DHL-5, 96 h
HuT 102 = experiment: Anti-proliferative activity, 96 hours; details: HuT-102, 96 h
Maver-1 = experiment: Anti-proliferative activity, 96 hours; details: Homo sapiens, Maver1, 96 h
MM.1S = experiment: Anti-proliferative activity, 96 hours; details: Homo sapiens, MM1.S
OPM-2 = experiment: Anti-proliferative activity, 96 hours; details: Homo sapiens, OPM-2, 96 h
KMS-26 = experiment: Anti-proliferative activity, 96 hours; details: KMS-26, 96 h

Chain of G1 to S Phase Transition 1 (GSPT1) (Q96SW2 whole entry partner, species assumed): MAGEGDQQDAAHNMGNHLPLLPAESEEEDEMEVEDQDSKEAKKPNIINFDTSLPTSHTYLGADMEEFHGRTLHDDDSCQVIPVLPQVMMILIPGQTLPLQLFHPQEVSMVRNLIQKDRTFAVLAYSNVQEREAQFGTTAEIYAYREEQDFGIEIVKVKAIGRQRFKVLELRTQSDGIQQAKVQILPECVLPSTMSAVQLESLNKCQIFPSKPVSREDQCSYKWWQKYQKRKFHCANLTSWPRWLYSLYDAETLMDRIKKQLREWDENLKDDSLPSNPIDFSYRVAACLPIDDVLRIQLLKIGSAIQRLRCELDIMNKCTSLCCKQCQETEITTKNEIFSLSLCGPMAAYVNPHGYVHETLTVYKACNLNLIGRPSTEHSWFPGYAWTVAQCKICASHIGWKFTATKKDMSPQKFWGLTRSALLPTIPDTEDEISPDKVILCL
Chain of G1 to S Phase Transition 1 (GSPT1) (Q16531 2-1140 partner limits assumed, species assumed): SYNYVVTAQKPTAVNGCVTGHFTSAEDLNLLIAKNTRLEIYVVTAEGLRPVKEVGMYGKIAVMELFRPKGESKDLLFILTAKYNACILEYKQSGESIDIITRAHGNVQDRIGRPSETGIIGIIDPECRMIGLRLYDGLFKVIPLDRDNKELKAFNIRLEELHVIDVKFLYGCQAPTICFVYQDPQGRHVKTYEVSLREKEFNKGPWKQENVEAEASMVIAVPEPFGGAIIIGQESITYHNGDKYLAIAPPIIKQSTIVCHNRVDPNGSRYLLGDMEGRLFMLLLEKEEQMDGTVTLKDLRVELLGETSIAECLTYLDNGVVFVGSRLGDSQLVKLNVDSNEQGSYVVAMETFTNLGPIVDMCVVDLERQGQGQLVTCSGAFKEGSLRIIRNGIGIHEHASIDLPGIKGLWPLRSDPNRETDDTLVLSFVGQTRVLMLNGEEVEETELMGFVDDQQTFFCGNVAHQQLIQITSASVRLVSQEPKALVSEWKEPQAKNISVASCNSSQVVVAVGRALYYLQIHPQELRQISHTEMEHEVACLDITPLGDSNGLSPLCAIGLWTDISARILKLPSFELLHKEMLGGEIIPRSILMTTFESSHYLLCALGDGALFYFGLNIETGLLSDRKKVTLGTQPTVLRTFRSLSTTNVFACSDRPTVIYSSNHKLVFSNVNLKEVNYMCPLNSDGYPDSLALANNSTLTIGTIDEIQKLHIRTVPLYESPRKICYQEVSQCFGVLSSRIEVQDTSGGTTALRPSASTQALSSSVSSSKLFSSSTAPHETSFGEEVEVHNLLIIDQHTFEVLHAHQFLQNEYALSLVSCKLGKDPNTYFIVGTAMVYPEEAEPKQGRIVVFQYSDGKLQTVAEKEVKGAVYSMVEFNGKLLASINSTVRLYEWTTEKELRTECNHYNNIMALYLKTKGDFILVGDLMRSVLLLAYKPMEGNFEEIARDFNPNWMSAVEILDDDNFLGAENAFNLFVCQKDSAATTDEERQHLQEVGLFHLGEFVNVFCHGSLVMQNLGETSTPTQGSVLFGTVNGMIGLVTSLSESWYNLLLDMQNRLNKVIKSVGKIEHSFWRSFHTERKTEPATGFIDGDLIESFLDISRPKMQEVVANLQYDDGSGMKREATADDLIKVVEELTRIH
Chain of G1 to S Phase Transition 1 (GSPT1) (P15170 whole entry, species assumed): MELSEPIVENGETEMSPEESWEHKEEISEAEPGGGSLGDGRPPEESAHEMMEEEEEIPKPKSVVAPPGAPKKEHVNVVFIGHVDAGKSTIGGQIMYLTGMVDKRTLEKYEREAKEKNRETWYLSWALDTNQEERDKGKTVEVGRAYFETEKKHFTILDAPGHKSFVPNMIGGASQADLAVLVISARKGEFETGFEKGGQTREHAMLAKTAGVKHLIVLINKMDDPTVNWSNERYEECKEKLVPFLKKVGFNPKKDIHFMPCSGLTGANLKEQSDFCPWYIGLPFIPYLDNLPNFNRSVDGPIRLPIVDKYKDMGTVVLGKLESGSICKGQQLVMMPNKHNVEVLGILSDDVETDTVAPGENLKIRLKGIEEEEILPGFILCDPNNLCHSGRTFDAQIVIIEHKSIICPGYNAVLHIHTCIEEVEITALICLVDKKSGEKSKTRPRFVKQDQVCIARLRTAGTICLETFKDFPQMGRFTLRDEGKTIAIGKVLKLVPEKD

In the case of `O=C1CC[C@H](N2C(=O)c3cccc4c(Cc5ccc(CN6CCOCC6)cc5)ccc2c34)C(=O)N1` (single isomer, unassigned) [Compound 1], the “effect on GSPT1” value [1] is reported as “no significant effect”, the off-target inhibition [2] is reported as “no targets inhibited >50%” and the tumor volume (KI-JK ALCL tumors) is reported as “decreased”. For the same compound, the “levels of IKZF1 and IKZF3 versus pre-dose” value (IKZF1 and IKZF3) was “smaller”, the AUC(0-inf) ([3]; dose normalized to 1 mg/kg) was 0.784 µg·h/mL and the Cmax ([3]; dose normalized to 1 mg/kg) was 0.11 µg/mL. For the same compound, the half-life ([3]; read-out: T ½ (converted)) was 2.3 h, the “tumor volume versus pomalidomide 3000 μg/kg” value ([4]; 10, 30 and 100 μg/kg) was “reduced tumor volume more than pomalidomide” and the “Statistical Significance Compared to Vehicle” value ([4]; Dose Level (mg/kg) 10, PO QD) was under 0.0001. The “Statistical Significance Compared to Vehicle” value ([4]; Dose Level (mg/kg) 30, PO QD) was under 0.0001, the “Statistical Significance Compared to Vehicle” value ([4]; Dose Level (mg/kg) 100, PO QD) was under 0.0001 and the “degradation of both IKZF1/3” value (IKZF1/3) was over 75%. The “duration of IKZF1/3 degradation” value (IKZF1/3) was 24 h, the tumor response (tumor xenografts; daily dosing at 30 μg/kg/day to 100 μg/kg/day, several tumor xenografts) was “durable tumor regression” and the efficacy (tumor xenografts; from 3 μg/kg/day to 100 μg/kg/day) was “dose dependent efficacy”. The IC50 (OCI-LY10) was 0.03 nM, the IC50 (WSU-DLCL2) was 2.8 nM and the IC50 (SU-DHL-5) was 6.37 nM. For the same compound, the IC50 (HuT 102) was 15.4 nM, the IC50 (Maver-1) was 12.1 nM and the IC50 (MM.1S) was 0.036 nM. The IC50 (OPM-2) was 0.058 nM and the IC50 (KMS-26) was 0.789 nM.
